{"source": "patent US11298337B2", "about": "“Parthenolide and its derivative for use in the treatment of axonal damage” (RUHR-UNIVERSITÄT BOCHUM, priority 2015, dated 2022)", "key": {"[1]": {"system": "dissociated DRG neurons from adult wild type mice", "test": "Axon growth of dissociated adult DRG neurons in culture", "settings": "adult wt DRG neurons, 2 days in culture", "description": "DRGs (T8-L6) were harvested, incubated in 0.25% trypsin/EDTA (GE Healthcare, Chalfont St Giles, UK) and 0.3% collagenase type IA (Sigma, St. Louis, US-Mo.) in DMEM (Life Technologies, Carlsbad, US-Calif.) at 37° C. and 5% CO2 for 45 min and mechanically dissociated. Cells were resuspended in DMEM containing 10% fetal bovine serum (GE Healthcare) penicillin/streptomycin (500 U/ml; Merck Millipore, Billerica, US-MA) and 5-fluoro-2′-desoxyuridine (100 nM; Sigma). Cells were cultured on poly-D-lysine (PDL, 0.1 mg/ml, molecular weight <300,000 kDa; Sigma) and laminin (20 μg/ml; Sigma) coated 96 well plates (Nunc, Germany) at 37° C. and 5% CO2.\nThe effect of the tubulin carboxypeptidase (TCP) inhibitor parthenolide on axon growth of mature neurons was determined in dissociated DRG neurons from adult wild type mice as described above.\nDRGs (T8-L6) were harvested, incubated in 0.25% trypsin/EDTA (GE Healthcare, Chalfont St Giles, UK) and 0.3% collagenase type IA (Sigma, St. Louis, US-Mo.) in DMEM (Life Technologies, Carlsbad, US-Calif.) at 37° C. and 5% CO2 for 45 min and mechanically dissociated. […]\nAxonal growth was determined upon 48 h incubation by fixation in 4% PFA (Sigma) and immunocytochemical staining with antibodies against NeuN (1:2,000; Abcam, ab177487, Cambridge, UK) and βIII-tubulin (1:2,000; Covance, Princeton, US-N.J.). […]"}, "[2]": {"system": "dissociated DRG neurons from adult wild type mice and GSK3α/GSK3β double knock-in mice", "test": "Axon growth of DRG neurons with SB216763 or nocodazole (modulation of microtubule dynamics)", "settings": "2 days in culture", "description": "Dorsal root ganglion (DRG) neurons were isolated from adult wild type (wt) and GSK3α/GSK3β mice as described in Gobrecht et al., Nature communications. […] DRGs (T8-L6) were harvested, incubated in 0.25% trypsin/EDTA (GE Healthcare, Chalfont St Giles, UK) and 0.3% collagenase type IA (Sigma, St. Louis, US-Mo.) in DMEM (Life Technologies, Carlsbad, US-Calif.) at 37° C. and 5% CO2 for 45 min and mechanically dissociated. Cells were resuspended in DMEM containing 10% fetal bovine serum (GE Healthcare) penicillin/streptomycin (500 U/ml; Merck Millipore, Billerica, US-MA) and 5-fluoro-2′-desoxyuridine (100 nM; Sigma). Cells were cultured on poly-D-lysine (PDL, 0.1 mg/ml, molecular weight <300,000 kDa; Sigma) and laminin (20 μg/ml; Sigma) coated 96 well plates (Nunc, Germany) at 37° C. and 5% CO2."}}, "data": [{"compound": "C=C(C(=O)O[C@H]1C/C(C)=C/CC/C(CO)=C/C2OC(=O)C(=C)[C@@H]21)C(O)CO", "note": "(stereo in doubt) [cnicin, [(1R,2S,4E,8Z,10S)-8-(hydroxymethyl)-4-methyl-13-methylidene-12-oxo-11-oxabicyclo[8.3.0]trideca-4,8-dien-2-yl] (3S)-3,4-dihydroxy-2-methylidene-butanoate]", "values": [{"measurement": "axon growth", "setting": "[1]; 0.1-100 nM, normalized to vehicle", "result": "significant, but less pronounced axon growth promotion"}, {"measurement": "concentration with strongest effects on axon growth", "setting": "[1]", "result": 0.5, "unit": "nM"}]}, {"compound": "Cn1cc(C2=C(c3ccc(Cl)cc3Cl)C(=O)NC2=O)c2ccccc21", "note": "[SB216763]", "values": [{"measurement": "axon growth promoted by GSK3α^S/A/GSK3β^S/A", "setting": "[2]; 5 μM SB216763, double knock-in DRG neurons", "result": "efficiently blocked GSK3α^S/A/GSK3β^S/A promoted axon growth"}]}, {"compound": "COC(=O)Nc1nc2ccc(C(=O)c3cccs3)cc2[nH]1", "note": "[nocodazole]", "values": [{"measurement": "axon growth, effect on GSK3α^S/A/GSK3β^S/A and parthenolide promoted growth", "setting": "[2]; 10 nM nocodazole, alone or with 1 nM parthenolide", "result": "abrogated the beneficial effects of both GSK3α^S/A/GSK3β^S/A and parthenolide to similar extent"}]}]}
